The source made the active and inactive calls. The rule behind the calls is not given here.
How the values were obtained:
[1] = target: T1, Aldo-keto reductase family 1 member B10 (Homo sapiens, UniProt O60218); assay: Inhibition of recombinant human N-terminal His6-tagged AKR1B10 expressed in Escherichia coli BL21 cells using all-trans-retinal as substrate at 20 uM incubated for 15 mins by HPLC method
Target sequence in this assay (O60218 whole entry, looked up): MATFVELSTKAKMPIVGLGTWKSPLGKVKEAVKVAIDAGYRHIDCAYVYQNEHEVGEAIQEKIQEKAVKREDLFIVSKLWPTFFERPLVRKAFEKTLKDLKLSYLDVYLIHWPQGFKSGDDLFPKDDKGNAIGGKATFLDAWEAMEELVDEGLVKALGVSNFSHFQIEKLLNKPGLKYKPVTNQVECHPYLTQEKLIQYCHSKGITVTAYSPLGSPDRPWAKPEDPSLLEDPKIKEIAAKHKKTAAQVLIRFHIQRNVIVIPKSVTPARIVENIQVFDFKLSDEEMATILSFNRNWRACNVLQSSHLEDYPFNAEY

[2] = target: T1, Aldo-keto reductase family 1 member B10; assay: Inhibition of recombinant human AKR1B10 expressed in human HCT116 cells assessed as reduction in daunorubicinol production using daunorubicin as substrate at 10 uM incubated for 4 to 8 hrs by UHPLC based transient transfection assay; type: cell-based; settings: HCT-116
Target sequence in this assay (O60218 whole entry, looked up): as above

[3] = target: T1, Aldo-keto reductase family 1 member B10; assay: Inhibition of recombinant human AKR1B10 expressed in human HCT116 cells assessed as reduction in daunorubicinol production using daunorubicin as substrate at 20 uM incubated for 4 to 8 hrs by UHPLC based transient transfection assay; type: cell-based; settings: HCT-116
Target sequence in this assay (O60218 whole entry, looked up): as above

[4] = target: T1, Aldo-keto reductase family 1 member B10; assay: Inhibition of recombinant human N-terminal His6-tagged AKR1B10 expressed in Escherichia coli BL21 cells using all-trans-retinal as substrate incubated for 15 mins by HPLC method
Target sequence in this assay (O60218 whole entry): as the sequence (O60218 whole entry, looked up) above

[5] = target: Aldo-keto reductase family 1 member B1 (Homo sapiens, UniProt P15121); assay: Inhibition of recombinant N-terminal His6-tagged AKR1B1 (unknown origin) expressed in Escherichia coli BL21 cells using all-trans-retinal as substrate incubated for 15 mins by HPLC method
[6] = target: T1, Aldo-keto reductase family 1 member B10; assay: Potency index, ratio of IC50 for flufenamic acid to IC50 for text compound for inhibition of recombinant human N-terminal His6-tagged AKR1B10 expressed in Escherichia coli BL21 cells using all-trans-retinal as substrate incubated for 15 mins by HPLC method
Target sequence in this assay (O60218 whole entry, looked up): as above

[7] = target: T1, Aldo-keto reductase family 1 member B10; assay: Inhibition of recombinant human N-terminal His6-tagged AKR1B10 expressed in Escherichia coli BL21 cells using daunorubicin as substrate incubated for 20 mins by UHPLC method
Target sequence in this assay (O60218 whole entry): as the sequence (O60218 whole entry, looked up) above

[8] = Cytotoxicity against human HCT116 cells assessed as cell viability after 72 hrs by MTT assay; type: cell-based; settings: HCT-116, 72 h
[9] = target: T1, Aldo-keto reductase family 1 member B10; assay: Non-competitive inhibition of recombinant human N-terminal His6-tagged AKR1B10 expressed in Escherichia coli BL21 cells using all-trans-retinal as substrate incubated for 15 mins by Lineweaver-Burk plot analysis
Target sequence in this assay (O60218 whole entry): as the sequence (O60218 whole entry, looked up) above

[10] = target: T1, Aldo-keto reductase family 1 member B10; assay: Inhibition of recombinant human AKR1B10 expressed in human HCT116 cells assessed as reduction in daunorubicinol production using daunorubicin as substrate incubated for 4 to 8 hrs by UHPLC based transient transfection assay; type: cell-based; settings: HCT-116
Target sequence in this assay (O60218 whole entry, looked up): as above

For `COc1cc([C@H]2Oc3cc([C@H]4Oc5cc(O)c(O)cc5C(=O)[C@@H]4O)ccc3O[C@@H]2CO)ccc1O`, the inhibition [1] was “Active”.
With `COc1ccc([C@@H]2CC(=O)c3c(O)cc(O)cc3O2)cc1O` the inhibition [1] was “Active”.
In the case of `C[C@@H]1O[C@@H](OC[C@H]2O[C@@H](Oc3c(-c4ccc(O)c(O)c4)oc4cc(O)cc(O)c4c3=O)[C@H](O)[C@@H](O)[C@@H]2O)[C@H](O)[C@H](O)[C@H]1O`, the inhibition [1] is reported as “Active”.
With `C[C@@H]1O[C@@H](Oc2c(-c3ccc(O)c(O)c3)oc3cc(O)cc(O)c3c2=O)[C@H](O)[C@H](O)[C@H]1O` the inhibition [1] was “Active”.
For `O=C(/C=C/c1ccc(O)c(O)c1)O[C@@H]1C[C@](O)(C(=O)O)C[C@@H](O)[C@H]1O`, the inhibition [1] was “Active”.
For `O=C(CCc1ccc(O)cc1)c1c(O)cc(O)cc1O[C@@H]1O[C@H](CO)[C@@H](O)[C@H](O)[C@H]1O`, the inhibition [1] was “Active”.
In the case of `O=C(O)/C=C/c1ccc(O)c(O)c1`, the inhibition [1] is reported as “Active”.
In the case of `O=C(O)c1ccc(O)cc1`, the inhibition [1] is reported as “Active”.
For `O=C(O[C@@H]1Cc2c(O)cc(O)cc2O[C@@H]1c1cc(O)c(O)c(O)c1)c1cc(O)c(O)c(O)c1`, the inhibition [1] was “Active”.
In the case of `O=C1CC(c2ccc(O)cc2)Oc2ccccc21` (stereo unspecified), the inhibition [1] is reported as “Active”.
With `O=C1CC(c2ccccc2O)Oc2ccccc21` (stereo unspecified) the inhibition [1] was “Active”.
For `O=C1C[C@@H](c2ccc(O)cc2)Oc2cc(O)cc(O)c21`, the inhibition [1] was “Active”.
In the case of `O=C1c2c(O)cc(O)cc2O[C@H](c2ccc(O)c(O)c2)[C@H]1O`, the inhibition [1] is reported as “Active”.
In the case of `O=c1c(O)c(-c2ccc(O)c(O)c2)oc2cc(O)cc(O)c12`, the inhibition [1] is reported as “Active”, the inhibition [2] is reported as 18% and the inhibition [3] is reported as 23%.
In the case of `O=c1c(O)c(-c2ccc(O)cc2O)oc2cc(O)cc(O)c12`, the inhibition [1] is reported as “Active”.
In the case of `O=c1c(O)c(-c2ccccc2)oc2ccccc12`, the inhibition [1] is reported as “Active”.
In the case of `O=c1cc(-c2ccc(O)cc2)oc2c([C@@H]3O[C@H](CO)[C@@H](O)[C@H](O)[C@H]3O)c(O)cc(O)c12`, the inhibition [1] is reported as “Active”.
With `O=c1cc(-c2ccccc2)oc2cccc(O)c12` the inhibition [1] was “Active”.
In the case of `Oc1cc(O)c2c(c1)O[C@H](c1ccc(O)c(O)c1)[C@@H](O)C2`, the inhibition [1] is reported as “Active”.
In the case of `O=c1cc(-c2ccccc2)oc2cc(O)ccc12` [7-HYDROXYFLAVONE], the inhibition [1] is reported as “Active”, the IC50 [4] is reported as 8.3 µM and the inhibition [3] is reported as 19%. It also gave an IC50 [5] of 12.3 µM, a Ratio IC50 [6] of 10 and an IC50 [7] of 160 µM. The EC50 [8] was over 50 µM.
For `O=c1cc(-c2ccc(O)cc2)oc2cc(O)cc(O)c12` [APIGENIN], the inhibition [1] was “Active”, the inhibition [2] was 25% and the IC50 [4] was 6.6 µM. For the same compound, the inhibition [3] was 34%, the IC50 [5] was 11.9 µM and the Ratio IC50 [6] was 10. The IC50 [7] was 37.1 µM, the Ki [9] was 6 µM and the EC50 [8] was 23.8 µM.
With `COc1ccc(-c2coc3cc(O)cc(O)c3c2=O)cc1` [BIOCHANIN] the inhibition [1] was “Active”, the IC50 [4] was 36.1 µM and the IC50 [5] was 127 µM.
For `O=c1c(-c2ccc(O)cc2)coc2cc(O)ccc12` [DAIDZEIN], the inhibition [1] was “Active”, the IC50 [4] was 32.2 µM and the IC50 [5] was 162 µM.
With `O=C(O)c1ccccc1Nc1cccc(C(F)(F)F)c1` [FLUFENAMIC ACID] the inhibition [1] was “Active”, the IC50 [4] was 96 µM and the inhibition [10] was “inactive”.
For `O=c1cc(-c2ccc(O)c(O)c2)oc2cc(O)cc(O)c12` [LUTEOLIN], the inhibition [1] was “Active”, the IC50 [4] was 9.2 µM and the inhibition [3] was 33%. For the same compound, the IC50 [7] was 108 µM and the EC50 [8] was 26.7 µM.

— ChEMBL document CHEMBL3739262, “Flavones Inhibit the Activity of AKR1B10, a Promising Therapeutic Target for Cancer Treatment” (J Nat Prod, 2015)
